MIC, EC50 and Activity data for 14 molecules are collected here from ChEMBL document CHEMBL5143624, “WCK 1152, WCK 1153: Discovery and structure activity relationship for the treatment of resistant pneumococcal and staphylococcal respiratory infections” (Bioorg Med Chem Lett, 2022).

For data set [1], the system named is Streptococcus pneumoniae. The experiment in a line: Antibacterial activity against Streptococcus pneumoniae 5844 harbouring moxifloxacin resistant DNA gyrase and topoisomerase IV mutant assessed as inhibition of bacterial growth incubated for 18 hrs by CLSI based serial agar dilution method. The note with it: Streptococcus pneumoniae, 5844, 18 h. In kind it is functional. (In agar dilution, organisms are placed on agar that contains the substance at set levels.)

Data set [2] concerns Streptococcus pneumoniae. Put plainly: Antibacterial activity against fluoroquinolone efflux positive Streptococcus pneumoniae 706 assessed as inhibition of bacterial growth incubated for 18 hrs by CLSI based serial agar dilution method. Format: functional.
Data set [3] relates to Staphylococcus aureus. Put plainly: Antibacterial activity against methicillin resistant Staphylococcus aureus assessed as inhibition of bacterial growth incubated for 18 hrs by CLSI based serial agar dilution method. The note with it: Staphylococcus aureus, read-out: MIC. In kind it is functional.
Data set [4] concerns Staphylococcus aureus. Put plainly: Antibacterial activity against methicillin resistant Staphylococcus aureus 5076 harbouring DNA gyrase and topoisomerase IV mutant and efflux pump assessed as inhibition of bacterial growth incubated for 18 hrs in presence of efflux inhibitor by CLSI based serial agar dilution method. Format: functional.
Data set [5] relates to Staphylococcus aureus. Put plainly: Antibacterial activity against Staphylococcus aureus […] assessed as inhibition of bacterial growth incubated for 18 hrs by CLSI based serial agar dilution method. Format: functional.
Data set [6] has as its system Streptococcus pneumoniae. Put plainly: Antibacterial activity against beta-lactams, macrolide and fluoroquinolone resistant Streptococcus pneumoniae 718 infected in po dosed Swiss mouse septicemia model assessed as protective dose administered on 1 and 5 hrs post infection and measured on day 7. In kind it is functional, organism-based.
The test system of data set [7] is Staphylococcus aureus. The experiment in a line: Antibacterial activity against methicillin resistant Staphylococcus aureus 032 assessed as inhibition of bacterial growth incubated for 18 hrs by CLSI based serial agar dilution method. Format: functional.
Data set [8] has as its system Streptococcus pneumoniae. The experiment in a line: Antibacterial activity against Streptococcus pneumoniae assessed as inhibition of bacterial growth incubated for 18 hrs by CLSI based serial agar dilution method. The note with it: Streptococcus pneumoniae, 18 h, read-out: MIC. In kind it is functional.
Data set [9] relates to Streptococcus pneumoniae. Put plainly: Antibacterial activity against beta-lactams, macrolide and fluoroquinolone resistant Streptococcus pneumoniae 718 assessed as inhibition of bacterial growth incubated for 18 hrs by CLSI based serial agar dilution method. In kind it is functional.
Data set [10] has as its system Staphylococcus aureus. Put plainly: Antibacterial activity against methicillin resistant Staphylococcus aureus 5076 assessed as inhibition of bacterial growth incubated for 18 hrs by CLSI based serial agar dilution method. Format: functional.
A short description of data set [11]: Mutagenicity in Swiss mouse assessed as chromosomal aberration in bone marrow cells at 400 mg/kg, po measured after 24 hrs relative to control. Format: toxicity, organism-based. The note with it: in vivo.
A short description of data set [12]: Induction of drug resistance in methicillin resistant Staphylococcus aureus assessed as increase in MIC measured after 10 passages (reference value: 0.4 ug/ml). In kind it is functional.
Where [13] appears, read: Staphylococcus aureus, 032, 18 h, read-out: MIC.
Where [14] appears, read: Streptococcus pneumoniae, 718, 18 h, read-out: MIC.

One may read the MIC as the lowest concentration found to suppress growth.

Values after ≈ are worked out from the molar mass of the structure shown. Some results are limits rather than exact numbers.

As to `CCC1(C)CN(c2c(F)cc3c(=O)c(C(=O)O)cn(C4CC4)c3c2OC)CCC1NC` (stereo not given), the MIC in the data set with Streptococcus pneumoniae [1] stood at 6.25 mg/L (≈ 14.5 µM); in the data set with Streptococcus pneumoniae [2], 1.56 mg/L (≈ 3.62 µM).

For `CCC1(C)CN(c2c(F)cc3c(=O)c(C(=O)O)cn(C4CC4)c3c2OC)CCC1NC1CC1` (stereo not given), the MIC in the data set on Streptococcus pneumoniae [1] was greater than 6.25 mg/L; with Streptococcus pneumoniae [2], 0.4 mg/L (≈ 0.874 µM).

As to `COc1c(N2CC[C@@H](N)C(C)(C)C2)c(F)cc2c(=O)c(C(=O)O)cn(C3CC3)c12`, the MIC is 0.05 mg/L (≈ 0.124 µM) in the data set with Staphylococcus aureus [3], 1.56 mg/L with Staphylococcus aureus [4], 0.05 mg/L (≈ 0.124 µM) with Staphylococcus aureus [5] and 0.8 mg/L (≈ 1.98 µM) in the data set on Staphylococcus aureus [7] (setting [13]). The EC50 with Streptococcus pneumoniae [6] turned out to be 20 mg/kg.

On to `CCC1(CC)CN(c2c(F)cc3c(=O)c(C(=O)O)cn(C4CC4)c3c2OC)CCC1N` (stereo not given), for which the figures for the MIC with Streptococcus pneumoniae [1] and in the data set on Streptococcus pneumoniae [2] were 6.25 mg/L (≈ 14.5 µM) and less than 0.4 mg/L, respectively.

On to `CCC1(C)CN(c2c(F)cc3c(=O)c(C(=O)O)cn(C4CC4)c3c2OC)CCC1N` (stereo not given), for which the MIC stood at 2.5 mg/L (≈ 5.99 µM) in the data set with Streptococcus pneumoniae [1], 0.2 mg/L (≈ 0.479 µM) in the data set on Streptococcus pneumoniae [8] and 0.1 mg/L (≈ 0.24 µM) in the data set with Staphylococcus aureus [3].

Turning to `COc1c(N2CC[C@H](N)C(C)(C)C2)c(F)cc2c(=O)c(C(=O)O)cn(C3CC3)c12`, the MIC came out at 0.05 mg/L (≈ 0.124 µM) in the data set with Staphylococcus aureus [3]; 1.56 mg/L with Staphylococcus aureus [4]; 0.05 mg/L (≈ 0.124 µM) in the data set on Staphylococcus aureus [5]; 0.8 mg/L (≈ 1.98 µM) in the data set on Staphylococcus aureus [7] (setting [13]); 0.8 mg/L (≈ 1.98 µM) in the data set on Streptococcus pneumoniae [9] (setting [14]). The EC50 with Streptococcus pneumoniae [6] is 50 mg/kg.

`CONC1CCN(c2c(F)cc3c(=O)c(C(=O)O)cn(C4CC4)c3c2OC)CC1(C)C` (stereo not given): the minimum inhibitory concentration (MIC) in the data set with Streptococcus pneumoniae [1] was greater than 6.25 mg/L; with Streptococcus pneumoniae [8] it was 0.8 mg/L (≈ 1.85 µM); with Streptococcus pneumoniae [2] it was 0.8 mg/L (≈ 1.85 µM); in the data set on Staphylococcus aureus [3], 0.1 mg/L (≈ 0.231 µM).

For the molecule `Cc1c(N2CCC(O)C(C)(C)C2)c(F)cc2c(=O)c(C(=O)O)cn(C3CC3)c12` (single isomer, unassigned; (+)), the minimum inhibitory concentration (MIC) was 0.2 mg/L (≈ 0.515 µM) in the data set on Staphylococcus aureus [10]; 0.2 mg/L in the data set with Staphylococcus aureus [4]; 0.003 mg/L (≈ 0.00772 µM) with Staphylococcus aureus [5]; 0.2 mg/L (≈ 0.515 µM) in the data set on Staphylococcus aureus [7] (setting [13]); 0.2 mg/L (≈ 0.515 µM) in the data set on Streptococcus pneumoniae [9] (setting [14]).

On to `Cc1c(N2CCC(N)C(C)(C)C2)c(F)cc2c(=O)c(C(=O)O)cn(C3CC3)c12` (single isomer, unassigned; (-)), for which the MIC with Staphylococcus aureus [10] amounted to 0.8 mg/L (≈ 2.06 µM); in the data set on Staphylococcus aureus [4], 0.8 mg/L; in the data set with Staphylococcus aureus [7] (18 h) it was 0.4 mg/L (≈ 1.03 µM); in the data set with Streptococcus pneumoniae [9] (18 h), 0.4 mg/L (≈ 1.03 µM). The EC50 in the data set on Streptococcus pneumoniae [6] came to 20 mg/kg.

As to `COc1c(N2CCC(N)C(C)(C)C2)c(F)cc2c(=O)c(C(=O)O)cn(C3CC3)c12` (single isomer, unassigned; (-)), the Activity in data set [11] was found to be 3.8%.

On to `COc1c(N2CCC(N)C(C)(C)C2)c(F)cc2c(=O)c(C(=O)O)cn(C3CC3)c12` (stereo in doubt; form 1), for which the Activity in [11] is listed as 5.83%. Moreover, the minimal inhibitory concentration (MIC) stood at 0.05 mg/L (≈ 0.124 µM) in the data set with Staphylococcus aureus [3], 1.56 mg/L in the data set with Staphylococcus aureus [4] and 0.6 mg/L (≈ 1.49 µM) with Staphylococcus aureus [7] (setting [13]). Also, the EC50 in the data set with Streptococcus pneumoniae [6] is 30 mg/kg.

Consider `Cc1c(N2CCC(O)C(C)C2)c(F)cc2c(=O)c(C(=O)O)cn(C3CC3)c12` (stereo in doubt; form 2), for which the minimal inhibitory concentration (MIC) in the data set with Staphylococcus aureus [7] and with Streptococcus pneumoniae [9] was 0.2 mg/L (≈ 0.534 µM) in each case.

Consider `COc1c(N2CCC(N)C(C)(C)C2)c(F)cc2c(=O)c(C(=O)O)cn(C3CC3)c12` (stereo in doubt; form 2), for which, in data set [11], the Activity came to 12%.

In the case of `COc1c(N2C[C@@H]3CCCN[C@@H]3C2)c(F)cc2c(=O)c(C(=O)O)cn(C3CC3)c12` [MOXIFLOXACIN], the MIC in [12] turned out to be 6.25 mg/L. The EC50 in the data set on Streptococcus pneumoniae [6] was greater than 100 mg/kg.
